Experimental data from patent US4156731A, “Heterocyclic oxime compounds and carbamoyloxime derivatives” (priority 1976, dated 1979).

Assays:
[1] = tested on: bean aphid (Aphis fabae Scop.); assay: Bean Aphid Foliage Spray Test; format: in vivo; set-up: key: A: Excellent control; B: Partial control; C: No control; conditions: 500 ppm foliage spray, 24 hour holding period
Protocol: (§1) Selected species of the new compounds were evaluated to determine their pesticidal activity against mites and certain insects, including anaphid, a caterpillar, a beetle and a fly.
(§2) Suspensions of the test compounds were prepared by dissolving one gram of compound in 50 milliliters of acetone in which had been dissolved 0.1 gram (10 percent of the weight of compound) of an alkylphenoxy polyethoxyethanol surfactant, as an emulsifying or dispersing agent. The resulting solution was mixed into 150 milliliters of water to give roughly 200 milliliters of a suspension containing the compound in finely divided form. The thus-prepared stock suspension contained 0.5 percent by weight of test compound. The test concentrations in parts per million by weight employed in the tests described hereinbelow were obtained by appropriate dilutions of the stock suspension with water. The test procedures were as follows:
Bean Aphid Foliage Spray Test
Adults and nymphal stages of the bean aphid (Aphis fabae Scop.) reared on potted dwarf nasturtium plants at 65°-70° F. and 50-70 per cent relative humidity, constituted the test insects. For testing purposes, the number of aphids per pot was standardized to 100-150 by trimming plants containing excess aphids.
The test compounds were formulated by diluting the stock suspension with water to give a suspension containing 500 parts of test compound per million parts of final formulation.
The potted plants (one pot per compound tested) infested with 100-150 aphids, were placed on a revolving turntable and sprayed with 100-110 milliliters of test compound formulation by use of a DeVilbiss spray gun set at 40 psig. air pressure. This application, which lasted 25 seconds, was sufficient to wet the plants to run-off. As a control, 100-110 milliliters of a water-acetone-emulsifier solution containing no test compound were also sprayed on infested plants. After spraying, the pots were placed on their sides on a sheet of white standard mimeograph paper which had been previously ruled to facilitate counting. Temperature and humidity in the test room during the 24 hour holding period were 65°-70° F. and 50-70 per cent, respectively. Aphids which fell into the paper and were unable to remain standing after being uprighted were considered dead. Aphids remaining on the plants wre observed closely for movement and those which were unable to move the length of the body upon stimulator by prodding were considered dead. Per cent mortality was recorded for various concentration levels.
(§3) In these tests the pesticidal activity of the compounds against aphid, mite, Southern Armyworm, Mexican Bean Beetle, and house fly was rated as follows: […]

[2] = tested on: two spotted mite (Tetranychus urticae Koch); assay: Mite Foliage Spray Test; format: in vivo; set-up: key: A: Excellent control; B: Partial control; C: No control; conditions: 500 ppm foliage spray, six days
Protocol: as §1, §2
Adults and nymphal stages of the two spotted mite (Tetranychus urticae Koch), reared on Tendergreen bean plants at 80±5 per cent relative humidity, were the test organisms. Infested leaves from a stock culture were placed on the primary leaves of two bean plants six to eight inches in height, growing in a two-and-a-half inch clay pot. 150-200 mites, a sufficient number for testing, transferred from the excised leaves to the fresh plants in a period of twenty four hours. Following the twenty four hour transfer period, the excised leaves were removed from the infested plants. The test compounds were formulated by diluting the stock suspension with water to give a suspension with water to give a suspension containing 500 parts of test compound per million parts of final formulation. The potted plants (one pot per compound) were placed on a revolving turntable and sprayed with 100-110 milliliters of test compound formulation by use of a DeVilbiss spray gun set at 40 psig. air pressure. This application, which lasted for 25 seconds, was sufficient to wet the plants to run-off. As a control, 100-110 milliliters of a water solution containing acetone and emulsifier in the same concentrations as the test compound formulation, but containing no test compound, were also sprayed on infested plants. The sprayed plants were held at 80±5 per cent relative humidity for six days, after which a mortality count of motile forms were made. Microscopic examination for motile forms was made on the leaves of the test plants. Any individual which was capable of locomotion upon prodding, was considered living.
as §3

[3] = tested on: southern armyworm (Prodenia Eridania, (Cram.)); assay: Southern Armyworm Leaf Spray Test; format: in vivo; set-up: key: A: Excellent control; B: Partial control; C: No control; conditions: larvae, 500 ppm leaf spray, three days
Protocol: as §1, §2
Southern Armyworm Leaf Spray Test
Larvae of the southern armyworm (Prodenia Eridania, (Cram.), reared on Tendergreen bean plants at a temperature of 80°±5° F. and a relative humidity of 50±5 per cent, constituted the test insects.
The test compounds were formulated by diluting the stock suspension with water to give a suspension containing 500 parts of test compound per million parts of final formulation. Potted Tendergreen bean plants of standard height and age were placed on a revolving turntable and sprayed with […] of test compound formulation by use of a DeVilbiss spray gun set at 10 psig. air pressure.
This application, which lasted 25 seconds, was sufficient to wet plants to run-off. As a control, 100-110 milliliters of a water-acetone-emulsifier solution containing no test compound were also sprayed on infested plants. When dry, the paired leaves were separated and each one was placed in a 9 centimeter Petric dish lined with moistened filter paper. Five randomly selected larvae were introduced into each dish and the dishes were closed. The closed dishes were labeled and held at 80°-85° F. for three days. Although the larvae could easily consume the whole leaf within twenty-four hours, no more food was added. Larvae which were unable to move the length of the body, even upon stimulation by prodding, were considered dead. Per cent mortality was recorded for various concentration levels.
as §3

[4] = tested on: Mexican bean beetle (Epilachna varivestis, Muls.); assay: Mexican Bean Beetle Leaf Spray Test; format: in vivo; set-up: key: A: Excellent control; B: Partial control; C: No control; conditions: fourth instar larvae, 500 ppm leaf spray, three days
Protocol: as §1, §2
Mexican Bean Beetle Leaf Spray Test
Fourth instar larvae of the Mexican bean beetle (Epilachna varivestis, Muls.), reared on Tendergreen bean plants at a temperature of 80°±5° F. and 50±5 per cent relative humidity, were the test insects.
The test compounds were formulated by diluting the stock suspension with water to give a suspension containing 500 parts of test compound per million parts of final formulation. Potted Tendergreen bean plants of standard height and age were placed on a revolving turntable and sprayed with 100-110 milliliters of test compound formulation by use of DeVilbiss spray gun set at 10 psig air pressure. This application, which lasted 25 seconds, was sufficient to wet plants to run-off. As a control, 100-110 milliliters of a water-acetone-emulsifier solution containing no test compound were also sprayed on infested plants. When dry, the paired leaves were separated and each was placed in a 9 centimeter Petri dish lined with moistened filter paper. Five randomly selected larvae were introduced into each dish, and the dishes were closed. The closed dishes were labeled and held at a temperature of […]. for three days. Although the larvae could easily consume the leaf within 24 to 48 hours, no more food was added. Larvae which were unable to move the length of the body, even upon stimulation, were considered dead.
as §3

[5] = tested on: house flies (Musca domestica, L.); assay: Fly Bait Test; format: in vivo; set-up: key: A: Excellent control; B: Partial control; C: No control; conditions: adults, 500 ppm in sugar bait, twenty four hours
Protocol: as §1, §2
Four to six day old adult house flies (Musca domestica, L.) reared according to the specifications of the Chemical Specialities Manufacturing Association (Blue Book, McNair-Dorland Co., NY., 1954; pages 234-244, 261) under controlled conditions of 80°±5° F. and 50±5 per cent relative humidity, were the test insects. The flies were immobilized by anesthetizing with carbon dioxide and twenty five immobilized individuals, males and females, were transferred to a cage consisting of a standard food stainer about five inches in diameter which was inverted over a wrapping-paper-covered surface. The test compounds were formulated by diluting the stock suspension with a 10 per cent (by weight) sugar solution to give a suspension containing 500 parts of test compound per million parts of final formulation, by weight. Ten milliliters of the test formulation were added to a souffle cup containing a one inch square of an absorbent cotton pad. This bait cup was introduced and centered on the blotting paper under the food strainer prior to admitting the anesthetized flies. The caged flies were allowed to feed on the bait for twenty four hours, at a temperature of 80°±5° F. and the relative humidity of 50±5 per cent.
as §3

[6] = Peroral toxicity to mammals (rat); conditions: in vivo, po, mortality rate of 50 percent, read-out: A. O. Rat LD50
Protocol: Certain of these compositions were also evaluated to determine their peroral toxicity to mammals. The animal selected for this experiment was the rat.

SMILES | Bean Aphid pesticidal activity rating [1] | Mite pesticidal activity rating [2] | Southern Armyworm pesticidal activity rating [3] | Mexican Bean Beetle pesticidal activity rating [4] | House-Fly pesticidal activity rating [5] | LD50 [6] [mg/kg]
CNC(=O)ON=C1SC(=NN(C)C)SC1(C)C [LV] | A | A | A | A | A | 1.8
CN(SC(Cl)(Cl)Cl)C(=O)ON=C1SC(=C(C#N)C#N)SC1(C)C [LXIII] | A | C | C | A | C | 538
CN(SN1CCOCC1)C(=O)ON=C1SC(=C(C#N)C#N)SC1(C)C [LXXIV] | A | C | B | C | C | 
CNC(=O)ON=C1SC(=S)SC1(C)C [LXXI] | A | B | B | A | B | 
CN=C1SC(=NOC(=O)N(C)SN(C)C(=O)ON=C2SC(=NC)SC2(C)C)C(C)(C)S1 [LXXVIII] | A | A | A | A | A | 
CN(SN(C)C(=O)ON=C1SC(=C(C#N)C#N)SC1(C)C)C(=O)ON=C1SC(=C(C#N)C#N)SC1(C)C [LXXVII] | C | C | C | A | C | 
CNC(=O)ON=C1CSC(=CC(C)=O)S1 [LXXVI] | C | C | C | B | A | 
CC(C)C(=O)C(C)(C)SSN(C)C(=O)ON=C1SC(=C(C#N)C#N)SC1(C)C [LXXV] | A | A | B | B | C | 
CN(SC(Cl)(Cl)Cl)C(=O)ON=C1SC(=NC#N)SC1(C)C [LXX] | C | C | C | C | C | 
Cc1ccc(S(=O)(=O)N=C2SC(=NOC(=O)N(C)SC(Cl)(Cl)Cl)C(C)(C)S2)cc1 [LX] | C | C | B | B | B | 
CN=C1SC(=NOC(=O)NC)C(C)(C)S1 [XL, 5,5-Dimethyl-2-methylimino-4-[O-(N-methylcarbamoyl)oximino]-1,3-dithiolane] | A | A | B | A | A | 
CCN=C1SC(=NOC(=O)N(C)SC(Cl)(Cl)Cl)C(C)(C)S1 [XLI, 5,5-Dimethyl-2-ethylimino-4-[[O-[N-methyl-N-(trichloromethanesulfenyl)carbamoyl]oximino]]-1,3-dithiolane] | A | A | B | A | A | 
CN(C)C(=O)ON=C1SC(=C(C#N)C#N)SC1(C)C [XLIII, 5,5-Dimethyl-2-(dicyanomethylidene)-4-[O-(N,N-dimethylcarbamoyl)oximino]-1,3-dithiolane] | B | C | C | B | B | 
CN(C)N=C1SC(=NOC(=O)N(C)SSC(C)(C)C)C(C)(C)S1 [XLII] | A | A | A | A | A | 
CC(C)N=C1SC(=NOC(=O)N(C)SSC(C)(C)C)C(C)(C)S1 [XLIX] | A | A | C | A | A | 
CN=C1SC(=NOC(=O)N(C)SC(Cl)(Cl)Cl)C(C)(C)S1 [XLV] | A | A | A | A | A | 
